Values quoted from earlier work, collected in US8765739B2, “Azetidine compound and pharmaceutical use thereof” (Japan Tobacco Inc., priority 2009, dated 2014).

Experiments:
[1] = system: bone absorption induced by metastatic cancer in rat
[2] = system: rats suffering from experimental autoimmune encephalomyelitis; conditions: animal model of multiple sclerosis
[3] = system: mice with collagen-induced arthritis

COc1cc(Oc2ccnc3cc(OC)c(OC)cc23)ccc1NC(=O)NC(C)c1nccs1 (stereo not drawn) [Ki20227]
bone absorption induced by metastatic cancer [1]: improves bone absorption
condition of rats with experimental autoimmune encephalomyelitis [2]: improves the condition
swellings and bone destructions [3]: improves swellings and bone destructions
